Experimental data reported in US20200390755A1, “COMPOUND FOR TREATING NERVOUS SYSTEM DISEASES AND USE THEREOF” (SHAANXI MICOT TECHNOLOGY CO., LTD., priority 2018, published 2020).

Legend:
N171-82Q HD mice [1] = assay: High-altitude balance beam (5 mm) experiment 2, HD mice; format: in vivo, mouse; details: 5 mg/kg/d intragastric
Method: (§1) 7-week-old N171-82Q HD male mice were paired with female B6C3F1/J hybrid mice to obtain newborn mice. From 21 days of age, male mice were housed in separate cages. 0.5 cm of mouse tail tissue was removed to extract DNA to determine the genotype of the mouse, such that N171-82Q HD mice and WT mice needed for the experiment were obtained. The mice were randomly divided into WT Vehicle group (normal mice), WT test compound group (administration group of normal mice, 5 mg/kg/d, n=10), HD Vehicle group (blank group of HD mice, n=15), HD test compound group (administration groups 1-5 of HD mice, 5 mg/kg/d, n=10). The test compound was suspended in 1% CMC-Na solution and administered by intragastric administration until the end of the study. The weights of the mice were measured every week. Behavioral tests were performed at 12 weeks, 18 weeks, and 24 weeks of age to investigate motor function. At 20 weeks, 3 samples of tissue from each group were used for western blotting and immunohistochemistry. At 24 weeks, MRI scans were performed. At the end of the study, the effect of the test compound on the mortality of mice was evaluated.
(§2) The software Sigmaplot 13.0 was used for statistical analysis of the data, and the data of each group was expressed as mean standard error (x±SEM). Behavioral test results were analyzed using two-way (genotype and processing factor) ANOVA and post-ho tests, the comparison and statistics of weight data were performed using two-way (genotype and age) ANOVA of repeated measures, and mortality was counted using Kaplan-Meier method. Other measurement data were analyzed by one-way ANOVA. P<0.05 was considered statistically significant.
(§3) The motor function of mice was evaluated by the rotarod experiment and three types of balance beam experiments. The shorter the time for mouse to cross the balance beam, and the longer the time to drop, the stronger the coordination ability of the mouse.
(§4) A square balance beam with a length of 100 cm and a width of 11 mm was placed at a 45-degree angle to the horizontal ground. A black box (12×12×12 cm) was placed at the end of the balance beam, and the starting platform was illuminated by bright lights. Spacers were placed under the balance beam to provide cushioning in case that the animal falls off the beam. One hour before the test, the mice were trained to cross the beam three times at one-eighth, one-quarter, and full-length distances from the black box, respectively. If the mice stopped walking during training, they were gently pressed with long forceps on the tail to encourage movement. After the training experiment, the mice rested for at least one hour in an undisturbed environment. In the experiment, the maximum time for each mouse to cross the balance beam was set to 60 seconds. If the time for crossing the beams was greater than 60 seconds, it was recorded as 60 seconds.
a square balance beam with a length of 80 cm and a width of 5 mm was place at a height of about 50 cm from the ground. The following steps are the same as the slope balance beam experiment.

N171-82Q HD mice [2] = assay: Slope balance beam experiment, HD mice; format: in vivo, mouse; details: 5 mg/kg/d intragastric
Method: as §1, §2, §3, §4

N171-82Q HD mice [3] = assay: High-altitude balance beam (11 mm) experiment 1, HD mice; format: in vivo, mouse; details: 5 mg/kg/d intragastric
Method: as §1, §2, §3, §4
a round balance beam with a length of 80 cm and a diameter of 11 mm was place at a height of about 50 cm from the ground. The following steps are the same as the slope balance beam experiment.

[4] = test system: rats with permanent cerebral ischemia; assay: Cerebral infarction volume by TTC staining in rats with permanent cerebral ischemia; format: in vivo, SD rats; details: 20 mg/kg by gavage, after 7 days of ischemia
Method: SD rats, male, about 220-250 g, were provided by the Experimental Animal Center of Medical College of Xi'an Jiaotong University. Rats were randomly divided into groups of 14 animals/group. The experiment included a sham group, a model group, a positive control Edaravone group and test compound groups 1-5.12 hours before the operation, the rats were fasted and were free to drink water, and then used for the modeling method of middle cerebral artery occlusion with thread plug. The rats were fixed on a wooden board after anesthesia, the common carotid artery was ligated proximally, the external carotid artery was ligated distally, and the main internal carotid artery into skull was retained. A ligature line was reserved at the bifurcation of the internal carotid artery for temporarily clamping the distal end of the internal carotid artery using an arterial clip. A 3-0 nylon thread with a length of 5 cm and a spherical shape with a diameter of 0.3 mm at the tip was inserted into the common carotid artery through a small incision at the bifurcation. The arterial clamp was loosened, and the thread plug was slowly advanced to 18˜20 mm. When there was resistance, the progress of the thread was stopped. At this time, the nylon thread plug entered the middle artery and blocked the blood flow, and then the ischemic phase began. The skin was sutured. In the sham operation group, the same procedure was executed, except that no thread plug was inserted.
Administering was performed at 0 h, 3 h, 6 h and 12 h after ischemia, and then administering was performed once a day for 7 consecutive days. The test compound was prepared into a 4 mg/mL solution with 1% CMC-Na solution and administered by gavage. The edaravone group received an intravenous dose of 0.078 mg/kg.
3) Percentage of cerebral infarction volume after 7 days of ischemia: TTC staining was used to observe the infarct area.
The rats in each group were sacrificed by spinal dislocation […]. The brain tissue was quickly peeled off and placed in the refrigerator at −20° C. to freeze to an appropriate hardness to remove the olfactory bulb, cerebellum and low brain stem. Continuous coronary slices were performed at 1 mm intervals, to obtain a total of 5 slices. The slices were placed in 0.5% triphenyltetrazolium chloride (TTC) in phosphate buffer (pH=7.4) and incubated in a 37° C. incubator without light for 15 min, and then fixed in paraformaldehyde and observed (fixed time should be within 24 h). The normal brain tissue is rosy red, and infarcted brain tissue is pale. After taking the picture, the slice was scanned to save the image. The area of cerebral infarction and the total area of slices were calculated using Image J processing software.
Cerebral infarction volume (%)=(volume of the contralateral hemisphere of the operation−volume of the uninfarcted portion of the hemisphere of the occlusion)/volume of the contralateral hemisphere of the operation×100%
(2) Statistical analysis of data: SPSS18.0 statistical software was used for statistical analysis and the data of each group was expressed as the mean standard error (x±SEM). One-way ANOVA and multiple comparisons between groups were used to compare the averages of measurement data among multiple groups. Rank score test was used for behavioral grading data, and Kaplan-Meier method was used for mortality. P<0.05 was considered statistically significant.

Row | Structure (SMILES) | Time for crossing the beams, high-altitude balance beam (5 mm) (N171-82Q HD mice [1]; 12 w) [s] | Time for crossing the beams, high-altitude balance beam (5 mm) (N171-82Q HD mice [1]; 18 w) [s] | Time for crossing the beams, high-altitude balance beam (5 mm) (N171-82Q HD mice [1]; 24 w) [s] | Time for crossing the beams, slope balance beam (N171-82Q HD mice [2]; 12 w) [s] | Time for crossing the beams, slope balance beam (N171-82Q HD mice [2]; 18 w) [s] | Time for crossing the beams, slope balance beam (N171-82Q HD mice [2]; 24 w) [s] | Time for crossing the beams, high-altitude balance beam (11 mm) (N171-82Q HD mice [3]; 12 w) [s] | Time for crossing the beams, high-altitude balance beam (11 mm) (N171-82Q HD mice [3]; 18 w) [s] | Time for crossing the beams, high-altitude balance beam (11 mm) (N171-82Q HD mice [3]; 24 w) [s] | Volume percentage of cerebral infarction [4] [%]
1 | O=c1cc(-c2ccc(N3CCCCC3)cc2)oc2c(O)c(O)ccc12 [Example 1, 7,8-dihydroxy-2-(4-(piperidin-1-yl)phenyl)-4H-chromen-4-one] | 13.09 ± 4.39 | 12.09 ± 3.27 | 13.91 ± 3.33 | 15.18 ± 3.95 | 14.09 ± 3.18 | 18.09 ± 6.02 | 8.20 ± 1.64 | 7.55 ± 2.42 | 9.18 ± 3.84 | 19.58 ± 9.56
2 | COc1ccc2c(=O)cc(-c3ccc(N4CCCCC4)cc3)oc2c1OC [Example 2, 7,8-dimethoxy-2-(4-(piperidin-1-yl)phenyl)-4H-chromen-4-one] | 12.13 ± 4.97 | 13.96 ± 2.74 | 14.32 ± 5.44 | 17.88 ± 2.83 | 17.13 ± 4.76 | 19.00 ± 6.84 | 8.98 ± 1.75 | 8.59 ± 2.18 | 9.68 ± 2.97 | 19.93 ± 8.89
3 | CN(C)C1CCN(c2ccc(-c3cc(=O)c4ccc(O)c(O)c4o3)cc2)CC1 [Example 3, 2-(4-(4-(dimethylamino)piperidin-1-yl)phenyl)-7,8-dihydroxy-4H-chromen-4-one] | 12.20 ± 4.45 | 12.99 ± 4.72 | 13.11 ± 5.30 | 13.64 ± 6.90 | 14.37 ± 5.81 | 15.43 ± 4.58 | 7.94 ± 1.64 | 8.15 ± 1.96 | 8.38 ± 3.78 | 20.93 ± 7.65
4 | CC1(C)CCN(c2ccc(-c3cc(=O)c4ccc(O)c(O)c4o3)cc2)CC1 [Example 4, 2-(4-(4,4-dimethylpiperidin-1-yl)phenyl)-7,8-dihydroxy-4H-chromen-4-one] | 13.22 ± 4.59 | 13.88 ± 5.63 | 15.92 ± 7.87 | 16.78 ± 5.98 | 17.00 ± 5.65 | 18.38 ± 5.10 | 8.57 ± 2.12 | 8.99 ± 2.29 | 9.38 ± 2.94 | 21.33 ± 7.68
5 | CC1CC(C)CN(c2ccc(-c3cc(=O)c4ccc(O)c(O)c4o3)cc2)C1 (centres unmarked) [Example 5, 2-(4-(3,5-dimethylpiperidin-1-yl)phenyl)-7,8-dihydroxy-4H-chromen-4-one] | 14.25 ± 5.34 | 14.98 ± 5.05 | 16.80 ± 5.97 | 14.94 ± 6.59 | 16.67 ± 5.77 | 18.58 ± 7.34 | 8.04 ± 1.67 | 8.61 ± 3.25 | 9.77 ± 4.89 | 20.50 ± 6.38
